From EP3353259B1, “SILYL MODIFIED POLYMER SEALANT” (Strongbond B.V., priority 2015, dated 2017)

assay: Cure of MS-kit with 4-dodecylbenzenesulfonic acid (comparative example 1a-b); type: physicochemical; conditions: added instead of a tin-catalyst
Description: (§1) All ingredients except the Tegokat are added to a Hauschild cup and mixed in a Hauschild mixer for 60 seconds. Than the catalyst is added and mixed for another 30 seconds. Additionally UV- and light stabilizers, pigments etc. may be added in the first or second step.

Compound | cure
CCCCCCCCCCCCc1ccc(S(=O)(=O)O)cc1 [4-dodecylbenzenesulfonic acid] | no cure was observed

same assay, conditions: after addition of a tin catalyst

Compound | cure
CCCCCCCCCCCCc1ccc(S(=O)(=O)O)cc1 [4-dodecylbenzenesulfonic acid] | behaved as without 4-dodecylbenzenesulfonic acid

assay: not given; conditions: not given
Description: as §1
In fig.6 the degradation time in hours at 150°C is plotted versus the time in days prior to cure at 40°C. On the horizontal axis the time the sealant was stored at 40°C before cure in days is given, showing the storage stability of the anti-oxidant, and on the vertical axis the time in hours to degradation at 150°C, showing the effectiveness of the anti-oxidant after storage of the sealant. This test may be seen as a stress test for both storage stability of the sealant as subsequent oxidation stability. The line represents the present situation using Irganox 1135 commonly applied in the sealant.
In fig. 8 a similar test as in fig. 6 is performed with the above mentioned anti-oxidants.
At present samples have been tested of a commercial STP (or SMP) sealant containing Irganox 1035, Irganox 1330 and a mixture thereof. The total antioxidant content of all samples is 4 g/kg STP polymer. The samples are stored in an oven at 40°C. The degradation times are determined at 150°C as a function of storage time. Furthermore, tensile tests are performed directly and after dumbbells used in said tests are exposed to 100°C for 1000 hours. This is done on freshly prepared sealants and sealants that have been stored at 40°C for 4 weeks.

Degradation time after 7 days @ 40°C | Initial degradation Time | Relative decrease degradation time after 7days @ 40°C | Compound
9 h | 16 h | 56% | CCCCCCCCSc1nc(Nc2cc(C(C)(C)C)c(O)c(C(C)(C)C)c2)nc(SCCCCCCCC)n1 [Irganox 565]
2 h | 16 h | 13% | CC(C)(C)c1cc(CCC(=O)OCCSCCOC(=O)CCc2cc(C(C)(C)C)c(O)c(C(C)(C)C)c2)cc(C(C)(C)C)c1O [Irganox 1035]

The next lines start with the compound.

Compound | Degradation time after 7 days @ 40°C | Initial degradation Time | Relative decrease degradation time after 7days @ 40°C
Cc1cc(CCC(=O)OCCOCCOCCOC(=O)CCc2cc(C)c(O)c(C(C)(C)C)c2)cc(C(C)(C)C)c1O [Irganox 245] | 2 h | 9 h | 22%
CC(C)(C)c1cc(CCC(=O)OCC(COC(=O)CCc2cc(C(C)(C)C)c(O)c(C(C)(C)C)c2)(COC(=O)CCc2cc(C(C)(C)C)c(O)c(C(C)(C)C)c2)COC(=O)CCc2cc(C(C)(C)C)c(O)c(C(C)(C)C)c2)cc(C(C)(C)C)c1O [Irganox 1010] | 3 h | 24 h | 13%
Cc1c(Cc2cc(C(C)(C)C)c(O)c(C(C)(C)C)c2)c(C)c(Cc2cc(C(C)(C)C)c(O)c(C(C)(C)C)c2)c(C)c1Cc1cc(C(C)(C)C)c(O)c(C(C)(C)C)c1 [Irganox 1330] | 21 h | 34 h | 62%

assay: Oxidation resistance of MS-kit with dodecylsulfide (comparative example 2a-d); type: physicochemical; conditions: up to 5% added to a standard mix with and without Irganox 1135, compared to standard mixture without dodecylsulfide
Description: Up to 5% dodecylsulfide was added to a standard mix with and without Irganox 1135. No change in oxidation resistance was found compared to the standard mixture with or without Irganox 1135 not containing dodecylsulfide.

Compound | oxidation resistance
CCCCCCCCCCCCSCCCCCCCCCCCC [dodecylsulfide] | No change
